This note sets out measurements from US11197914B2, “GLP-1R/GCGR dual target agonist polypeptide for treatment of fatty liver diseases, hyperlipemia and arteriosclerosis” (Shenzhen Turier Biotech Co., Ltd., priority 2016, dated 2021).

*1 amine or outer side, *2 acyl side, *3 side chain or, on linkers, in order; H or OH if unused. Primed or numbered codes have the meaning given here. Where no end group is shown, it is not given here. Side-chain parts run from the residue outwards. [ ]: non-standard residue; d: D form. The star is where a group is joined. C18 diacid = O=C(O)CCCCCCCCCCCCCCCCC(=O)*; C16 diacid = O=C(O)CCCCCCCCCCCCCCC(=O)*; γGlu = O=C(O)[C@H](CCC(=O)[*:2])N[*:1]; Palmitoyl = CCCCCCCCCCCCCCCC(=O)*; Nle = CCCC[C@H](N)C(=O)O; PEG2′ = not defined here; Aib = CC(C)(N)C(=O)O

In the first assay the test system is Hepatic stellate cell strain LX-2. In words: In vitro inhibition of hepatic fibrosis: expression of LX-2 cell activation marker α-SMA (Western Blot, α-SMA/β-actin). The class given is cell-based, human. Conditions: LX-2 cells. The protocol:
Hepatic stellate cell strain LX-2 was selected to study and observe the effect of different doses of test substances on the expression of LX-2 cell activation marker […]. Hepatic stellate cell LX-2 was laid on 35 mm cell culture plate, cultured with DMEM (high glucose)+10% FBS+1% double-antibody culture medium (Thermo Fisher), placed overnight when the cells grew to 70% convergence at 37° C. and under the condition of 5% CO2, and treated with the above compounds 1-37 (dissolved in PBS) for 48 hours the next day morning to extract cell protein, carry out Western Blot, and take β-actin as internal reference and analyze the expression quantities of α-SMA and β-actin by a gray level of Image J 1.50i. PBS with the same volume as that in experimental group was added in negative control. […] The integrating gray level of α-SMA/β-actin in the negative control group was 100% to analyze the in vitro inhibition activity of hepatic fibrosis of tested polypeptide.
(In western blotting, separated proteins are transferred to a membrane and probed.)
As to “His-(D-Ser)-Gln-Gly-Thr-Phe-Thr-Ser-Asp-Tyr-Ser-Lys-Tyr-Leu-Asp-Lys(PEG2-PEG2-CO(CH2)16CO2H)-Arg-Arg-Ala-Gln-Asp-Phe-Val-Gln-Trp-Leu-Met-Asn-Thr-Gly-Gly-Pro-Ser-Ser-Gly-Ala-Pro-Pro-Pro-Ser-NH2 (H[dS]QGTFTSDYSKYLDK([PEG2′-PEG2′-C18 diacid])RRAQDFVQWLMNTGGPSSGAPPPS-NH2) [Compound 35]”, the “Inhibition of LX-2 cell activation marker α-SMA (in words, from Table 2)” value is listed as “obviously reduce”.

Staying with this assay, now noted: LX-2 cells, 1 μM, 48 hours, negative control = 100%.
In the case of “His-(D-Ser)-Gln-Gly-Thr-Phe-Thr-Ser-Asp-Tyr-Ser-Lys-Tyr-Leu-Asp-Lys(PEG2-PEG2-γGlu-CO(CH2)16CO2H)-Arg-Arg-Ala-Gln-Asp-Phe-Val-Gln-Trp-Leu-Met-Asn-Thr-Gly-Gly-Pro-Ser-Ser-Gly-Ala-Pro-Pro-Pro-Ser-NH2 (H[dS]QGTFTSDYSKYLDK([PEG2′-PEG2′-γGlu-C18 diacid])RRAQDFVQWLMNTGGPSSGAPPPS-NH2) [Compound 34]”, the “Relative expression of α-SMA (α-SMA/β-actin, %)” value came out at 88.18%.
The same measure, in the same setting: the same measure for “His-(D-Ser)-Gln-Gly-Thr-Phe-Thr-Ser-Asp-Tyr-Ser-Lys-Tyr-Leu-Asp-Lys(PEG2-PEG2-CO(CH2)16CO2H)-Arg-Arg-Ala-Gln-Asp-Phe-Val-Gln-Trp-Leu-Met-Asn-Thr-Gly-Gly-Pro-Ser-Ser-Gly-Ala-Pro-Pro-Pro-Ser-NH2 (H[dS]QGTFTSDYSKYLDK([PEG2′-PEG2′-C18 diacid])RRAQDFVQWLMNTGGPSSGAPPPS-NH2) [Compound 35]”: 61.28%.
Regarding “His-(D-Ser)-Gln-Gly-Thr-Phe-Thr-Ser-Asp-Tyr-Ser-Lys-Tyr-Leu-Asp-Ser-Lys(PEG2-PEG2-γGlu-CO(CH2)16CO2H)-Ala-Ala-His-Asp-Phe-Val-Glu-Trp-Leu-Leu-Arg-Ala-NH2 (H[dS]QGTFTSDYSKYLDSK([PEG2′-PEG2′-γGlu-C18 diacid])AAHDFVEWLLRA-NH2) [Compound 17]”, the “Relative expression of α-SMA (α-SMA/β-actin, %)” value was determined as 75.38%.
On the same count and under the same terms, the same measure for “His-(D-Ser)-Gln-Gly-Thr-Phe-Thr-Ser-Asp-Tyr-Ser-Lys-Tyr-Leu-Asp-Aib-Lys(PEG2-PEG2-CO(CH2)16CO2H)-Arg-Ala-Gln-Asp-Phe-Val-Gln-Trp-Leu-Met-Asn-Thr-Gly-Gly-Pro-Ser-Ser-Gly-Ala-Pro-Pro-Pro-Ser-NH2 (H[dS]QGTFTSDYSKYLD[Aib]K([PEG2′-PEG2′-C18 diacid])RAQDFVQWLMNTGGPSSGAPPPS-NH2) [Compound 10]”: 71.49%; for “His-(D-Ser)-Gln-Gly-Thr-Phe-Thr-Ser-Asp-Tyr-Ser-Lys-Tyr-Leu-Asp-Glu-Lys-Ala-Ala-Lys(PEG2-PEG2-γGlu-CO(CH2)16CO2H)-Glu-Phe-Ile-Glu-Trp-Leu-Leu-Asn-Gly-Gly-Pro-Ser-Ser-Gly-Ala-Pro-Pro-Pro-Ser-NH2 (H[dS]QGTFTSDYSKYLDEKAAK([PEG2′-PEG2′-γGlu-C18 diacid])EFIEWLLNGGPSSGAPPPS-NH2) [Compound 26]”: 94.44%.
Still for that read-out and setting: the same measure for “His-(D-Ser)-Gln-Gly-Thr-Phe-Thr-Ser-Asp-Tyr-Ser-Lys-Tyr-Leu-Asp-Glu-Lys-Ala-Ala-Lys(PEG2-PEG2-γGlu-CO(CH2)14CO2H)-Glu-Phe-Ile-Glu-Trp-Leu-Leu-Asn-Gly-Gly-Pro-Ser-Ser-Gly-Ala-Pro-Pro-Pro-Ser-NH2 (H[dS]QGTFTSDYSKYLDEKAAK([PEG2′-PEG2′-γGlu-C16 diacid])EFIEWLLNGGPSSGAPPPS-NH2) [Compound 27]”: 92.34%; for “His-(D-Ser)-Gln-Gly-Thr-Phe-Thr-Ser-Asp-Lys(PEG2-PEG2-CO(CH2)16CO2H)-Soer-Lys-Tyr-Leu-Asp-Aib-Arg-Arg-Ala-Gln-Asp-Phe-Val-Gln-Trp-Leu-Met-Asn-Thr-Gly-Gly-Pro-Ser-Ser-Gly-Ala-Pro-Pro-Pro-Ser-NH2 (H[dS]QGTFTSDK([PEG2′-PEG2′-C18 diacid])SKYLD[Aib]RRAQDFVQWLMNTGGPSSGAPPPS-NH2) [Compound 30]”: 85.53%.
Consider “His-(D-Ser)-Gln-Gly-Thr-Phe-Thr-Ser-Asp-Tyr-Ser-Lys-Tyr-Leu-Asp-Aib-Lys(PEG2-PEG2-γGlu-CO(CH2)16CO2H)-Arg-Ala-Gln-Asp-Phe-Val-Gln-Trp-Leu-Met-Asn-Thr-Gly-Gly-Pro-Ser-Ser-Gly-Ala-Pro-Pro-Pro-Ser-NH2 (H[dS]QGTFTSDYSKYLD[Aib]K([PEG2′-PEG2′-γGlu-C18 diacid])RAQDFVQWLMNTGGPSSGAPPPS-NH2) [Compound 7]”, for which the “Relative expression of α-SMA (α-SMA/β-actin, %)” value turned out to be 73.52%.
Still for that read-out and setting: in the case of “His-Aib-Gln-Gly-Thr-Phe-Thr-Ser-Asp-Lys(PEG2-PEG2-γGlu-CO(CH2)14CH3)-Ser-Lys-Tyr-Leu-Asp-Aib-Arg-Arg-Ala-Gln-Asp-Phe-Val-Gln-Trp-Leu-Leu-Asp-Gly-Gly-Pro-Ser-Ser-Gly-Ala-Pro-Pro-Pro-Ser-NH2 (H[Aib]QGTFTSDK([PEG2′-PEG2′-γGlu-Palmitoyl])SKYLD[Aib]RRAQDFVQWLLDGGPSSGAPPPS-NH2) [Compound 8]” it was 80.25%; in that of “His-(D-Ser)-Gln-Gly-Thr-Phe-Thr-Ser-Asp-Tyr-Ser-Lys(PEG2-PEG2-γGlu-CO(CH2)14CH3)-Lys-Leu-Asp-Aib-Arg-Arg-Ala-Gln-Asp-Phe-Val-Gln-Trp-Leu-Met-Asn-Thr-Gly-Gly-Pro-Ser-Ser-Gly-Ala-Pro-Pro-Pro-Ser-NH2 (H[dS]QGTFTSDYSK([PEG2′-PEG2′-γGlu-Palmitoyl])KLD[Aib]RRAQDFVQWLMNTGGPSSGAPPPS-NH2) [Compound 1]”, 75.26%.
Still for that read-out and setting: in the case of “His-(D-Ser)-Gln-Gly-Thr-Phe-Thr-Ser-Asp-Tyr-Ser-Lys-Tyr-Leu-Asp-Glu-Lys-Ala-Ala-Lys(PEG2-PEG2-γGlu-CO(CH2)14CH3)-Glu-Phe-Ile-Glu-Trp-Leu-Leu-Arg-Ala-NH2 (H[dS]QGTFTSDYSKYLDEKAAK([PEG2′-PEG2′-γGlu-Palmitoyl])EFIEWLLRA-NH2) [Compound 23]” it was 95.91%; in that of “His-(D-Ser)-Gln-Gly-Thr-Phe-Thr-Ser-Asp-Tyr-Ser-Lys-Tyr-Leu-Asp-Aib-Lys(PEG2-PEG2-γGlu-CO(CH2)14CH3)-Arg-Ala-Gln-Asp-Phe-Val-Gln-Trp-Leu-Met-Asn-Thr-Gly-Gly-Pro-Ser-Ser-Gly-Ala-Pro-Pro-Pro-Ser-NH2 (H[dS]QGTFTSDYSKYLD[Aib]K([PEG2′-PEG2′-γGlu-Palmitoyl])RAQDFVQWLMNTGGPSSGAPPPS-NH2) [Compound 33]”, 95.45%.
Same read-out and setting: the same measure for “His-Aib-Gln-Gly-Thr-Phe-Thr-Ser-Asp-Lys(PEG2-PEG2-γGlu-CO(CH2)16CO2H)-Ser-Lys-Tyr-Leu-Asp-Glu-Arg-Arg-Ala-Gln-Asp-Phe-Val-Gln-Trp-Leu-Leu-Asp-Gly-Gly-Pro-Ser-Ser-Gly-Ala-Pro-Pro-Pro-Ser-NH2 (H[Aib]QGTFTSDK([PEG2′-PEG2′-γGlu-C18 diacid])SKYLDERRAQDFVQWLLDGGPSSGAPPPS-NH2) [Compound 15]”: 77.29%; for “His-(D-Ser)-Gln-Gly-Thr-Phe-Thr-Ser-Asp-Tyr-Ser-Lys-Tyr-Leu-Asp-Glu-Lys-Ala-Ala-Lys(PEG2-PEG2-γGlu-CO(CH2)14CH3)-Glu-Phe-Ile-Glu-Trp-Leu-Leu-Asn-Gly-Gly-Pro-Ser-Ser-Gly-Ala-Pro-Pro-Pro-Ser-NH2 (H[dS]QGTFTSDYSKYLDEKAAK([PEG2′-PEG2′-γGlu-Palmitoyl])EFIEWLLNGGPSSGAPPPS-NH2) [Compound 29]”: 89.36%; for “His-(D-Ser)-Gln-Gly-Thr-Phe-Thr-Ser-Asp-Tyr-Ser-Lys-Tyr-Leu-Asp-Lys(PEG2-PEG2-γGlu-CO(CH2)14CH3)-Arg-Arg-Ala-Gln-Asp-Phe-Val-Gln-Trp-Leu-Nle-Asn-Thr-Gly-Gly-Pro-Ser-Ser-Gly-Ala-Pro-Pro-Pro-Ser-NH2 (H[dS]QGTFTSDYSKYLDK([PEG2′-PEG2′-γGlu-Palmitoyl])RRAQDFVQWL[Nle]NTGGPSSGAPPPS-NH2) [Compound 37]”: 42.45%.
